Assay results reported in patent publication US6358885B1, “Substituted phenylheterocyclic herbicides” (Mississippi State University, priority 1992, dated 2002).

How the values were obtained:
Assay in all cases: Test B preemergence/postemergence greenhouse plant response rating 0 to 10
Details in all cases: 0 to 10 scale
barley = format: in vivo, Hordeum vulgare
Method in brief: (§1)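 Both application timings were run together: seeds got compound preemergence, and established seedlings (two to eighteen cm) got it postemergence. Non-phytotoxic solvent carried the chemical. Ratings are visual, versus controls, at twelve to sixteen days.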

barnyardgrass = format: in vivo, Echinochloa crus-galli
Method in brief: as §1

bedstraw = format: in vivo, Galium aparine
Method in brief: as §1

blackgrass = format: in vivo, Alopecurus myosuroides
Method in brief: as §1

cheatgrass = format: in vivo, Bromus secalinus
Method in brief: as §1

chickweed = format: in vivo, Stellaria media
Method in brief: as §1

cocklebur = format: in vivo, Xanthium pensylvanicum
Method in brief: as §1

corn = format: in vivo, Zea mays
Method in brief: as §1

cotton = format: in vivo, Gossypium hirsutum
Method in brief: as §1

crabgrass = format: in vivo, Digitaria spp.
Method in brief: as §1

giant foxtail = format: in vivo, Setaria faberii
Method in brief: as §1

lambsquarters = format: in vivo, Chenopodium album
Method in brief: as §1

morningglory = format: in vivo, Ipomoea hederacea
Method in brief: as §1

rape = format: in vivo, Brassica napus
Method in brief: as §1

rice = format: in vivo, Oryza sativa
Method in brief: as §1

sorghum = format: in vivo, Sorghum bicolor
Method in brief: as §1

soybean = format: in vivo, Glycine max
Method in brief: as §1

sugar beet = format: in vivo, Beta vulgaris
Method in brief: as §1

velvetleaf = format: in vivo, Abutilon theophrasti
Method in brief: as §1

wheat = format: in vivo, Triticum aestivum
Method in brief: as §1

wild buckwheat = format: in vivo, Polygonum convolvulus
Method in brief: as §1

wild oat = format: in vivo, Avena fatua
Method in brief: as §1

purple nutsedge = format: in vivo, Cyperus rotundus
Method in brief: as §1

C=CCOC(=O)COc1cc(-c2nn3c(c2Cl)CCCC3)c(F)cc1Cl [Compound 62]
6: Plant response rating, Morningglory (morningglory; POSTEMERGENCE, Rate 10 g/ha) | Plant response rating, Rape (rape; POSTEMERGENCE, Rate 50 g/ha)
9: Plant response rating, Bedstraw (bedstraw; POSTEMERGENCE, Rate 50 g/ha) | Plant response rating, Cocklebur (cocklebur; POSTEMERGENCE, Rate 50 g/ha) | Plant response rating, Lambsquarter (lambsquarters; POSTEMERGENCE, Rate 50 g/ha) | Plant response rating, Lambsquarter (lambsquarters; PREEMERGENCE, Rate 50 g/ha) | Plant response rating, Morningglory (morningglory; POSTEMERGENCE, Rate 50 g/ha)
2: Plant response rating, Barnyardgrass (barnyardgrass; POSTEMERGENCE, Rate 10 g/ha) | Plant response rating, Blackgrass (blackgrass; POSTEMERGENCE, Rate 50 g/ha) | Plant response rating, Cheatgrass (cheatgrass; POSTEMERGENCE, Rate 50 g/ha) | Plant response rating, Corn (corn; POSTEMERGENCE, Rate 10 g/ha) | Plant response rating, Crabgrass (crabgrass; POSTEMERGENCE, Rate 50 g/ha) | Plant response rating, Sorghum (sorghum; POSTEMERGENCE, Rate 10 g/ha) | Plant response rating, Sorghum (sorghum; POSTEMERGENCE, Rate 50 g/ha) | Plant response rating, Soybean (soybean; POSTEMERGENCE, Rate 10 g/ha) | Plant response rating, Velvetleaf (velvetleaf; PREEMERGENCE, Rate 50 g/ha) | Plant response rating, Wheat (wheat; POSTEMERGENCE, Rate 10 g/ha) | Plant response rating, Wheat (wheat; POSTEMERGENCE, Rate 50 g/ha) | Plant response rating, Wheat (wheat; PREEMERGENCE, Rate 50 g/ha) | Plant response rating, Wild buckwheat (wild buckwheat; POSTEMERGENCE, Rate 10 g/ha) | Plant response rating, Wild oat (wild oat; POSTEMERGENCE, Rate 50 g/ha)
5: Plant response rating, Cocklebur (cocklebur; POSTEMERGENCE, Rate 10 g/ha) | Plant response rating, Corn (corn; POSTEMERGENCE, Rate 50 g/ha)
7: Plant response rating, Bedstraw (bedstraw; PREEMERGENCE, Rate 10 g/ha) | Plant response rating, Bedstraw (bedstraw; PREEMERGENCE, Rate 50 g/ha) | Plant response rating, Velvetleaf (velvetleaf; POSTEMERGENCE, Rate 10 g/ha)
1: Plant response rating, Barley (barley; POSTEMERGENCE, Rate 10 g/ha) | Plant response rating, Barley (barley; POSTEMERGENCE, Rate 50 g/ha) | Plant response rating, Blackgrass (blackgrass; POSTEMERGENCE, Rate 10 g/ha) | Plant response rating, Cheatgrass (cheatgrass; POSTEMERGENCE, Rate 10 g/ha) | Plant response rating, Crabgrass (crabgrass; POSTEMERGENCE, Rate 10 g/ha) | Plant response rating, Giant foxtail (giant foxtail; POSTEMERGENCE, Rate 10 g/ha) | Plant response rating, Rape (rape; POSTEMERGENCE, Rate 10 g/ha) | Plant response rating, Wild oat (wild oat; POSTEMERGENCE, Rate 10 g/ha)
3: Plant response rating, Barnyardgrass (barnyardgrass; POSTEMERGENCE, Rate 50 g/ha) | Plant response rating, Chickweed (chickweed; POSTEMERGENCE, Rate 50 g/ha) | Plant response rating, Giant foxtail (giant foxtail; POSTEMERGENCE, Rate 50 g/ha) | Plant response rating, Rice (rice; POSTEMERGENCE, Rate 10 g/ha) | Plant response rating, Rice (rice; POSTEMERGENCE, Rate 50 g/ha)
0: Plant response rating, Barley (barley; PREEMERGENCE, Rate 10 g/ha) | Plant response rating, Barley (barley; PREEMERGENCE, Rate 50 g/ha) | Plant response rating, Barnyardgrass (barnyardgrass; PREEMERGENCE, Rate 10 g/ha) | Plant response rating, Barnyardgrass (barnyardgrass; PREEMERGENCE, Rate 50 g/ha) | Plant response rating, Blackgrass (blackgrass; PREEMERGENCE, Rate 10 g/ha) | Plant response rating, Blackgrass (blackgrass; PREEMERGENCE, Rate 50 g/ha) | Plant response rating, Cheatgrass (cheatgrass; PREEMERGENCE, Rate 10 g/ha) | Plant response rating, Cheatgrass (cheatgrass; PREEMERGENCE, Rate 50 g/ha) | Plant response rating, Chickweed (chickweed; POSTEMERGENCE, Rate 10 g/ha) | Plant response rating, Chickweed (chickweed; PREEMERGENCE, Rate 50 g/ha) | Plant response rating, Cocklebur (cocklebur; PREEMERGENCE, Rate 10 g/ha) | Plant response rating, Cocklebur (cocklebur; PREEMERGENCE, Rate 50 g/ha) | Plant response rating, Corn (corn; PREEMERGENCE, Rate 50 g/ha) | Plant response rating, Cotton (cotton; PREEMERGENCE, Rate 10 g/ha) | Plant response rating, Cotton (cotton; PREEMERGENCE, Rate 50 g/ha) | Plant response rating, Crabgrass (crabgrass; PREEMERGENCE, Rate 10 g/ha) | Plant response rating, Crabgrass (crabgrass; PREEMERGENCE, Rate 50 g/ha) | Plant response rating, Giant foxtail (giant foxtail; PREEMERGENCE, Rate 10 g/ha) | Plant response rating, Giant foxtail (giant foxtail; PREEMERGENCE, Rate 50 g/ha) | Plant response rating, Morningglory (morningglory; PREEMERGENCE, Rate 50 g/ha) | Plant response rating, Rape (rape; PREEMERGENCE, Rate 50 g/ha) | Plant response rating, Rice (rice; PREEMERGENCE, Rate 50 g/ha) | Plant response rating, Sorghum (sorghum; PREEMERGENCE, Rate 50 g/ha) | Plant response rating, Soybean (soybean; PREEMERGENCE, Rate 50 g/ha) | Plant response rating, Wild buckwheat (wild buckwheat; PREEMERGENCE, Rate 50 g/ha) | Plant response rating, Wild oat (wild oat; PREEMERGENCE, Rate 50 g/ha) | Plant response rating, Nutsedge (purple nutsedge; POSTEMERGENCE, Rate 10 g/ha) | Plant response rating, Nutsedge (purple nutsedge; POSTEMERGENCE, Rate 50 g/ha) | Plant response rating, Nutsedge (purple nutsedge; PREEMERGENCE, Rate 50 g/ha)
8: Plant response rating, Bedstraw (bedstraw; POSTEMERGENCE, Rate 10 g/ha) | Plant response rating, Lambsquarter (lambsquarters; POSTEMERGENCE, Rate 10 g/ha) | Plant response rating, Soybean (soybean; POSTEMERGENCE, Rate 50 g/ha)
10: Plant response rating, Cotton (cotton; POSTEMERGENCE, Rate 10 g/ha) | Plant response rating, Cotton (cotton; POSTEMERGENCE, Rate 50 g/ha) | Plant response rating, Sugar beet (sugar beet; POSTEMERGENCE, Rate 10 g/ha) | Plant response rating, Sugar beet (sugar beet; POSTEMERGENCE, Rate 50 g/ha) | Plant response rating, Sugar beet (sugar beet; PREEMERGENCE, Rate 50 g/ha) | Plant response rating, Velvetleaf (velvetleaf; POSTEMERGENCE, Rate 50 g/ha) | Plant response rating, Wild buckwheat (wild buckwheat; POSTEMERGENCE, Rate 50 g/ha)
